# In patent publication US20150031102A1, “METHODS AND COMPOSITIONS FOR ENHANCED PRODUCTION OF BUTANOL BY CLOSTRIDIA” (Butrolix LLC, priority 2012, published 2015):
# Values joined by “and” are separate entries in the source; they are usually repeats but may differ in a detail not shown here. Equal entries are not always repeated.
# Tested on: Clostridium acetobutylicum strain ATCC 824
# Assay: Sequential batch transfer in 24-well culture plates (butanol, residual glucose, butanol yield and productivity)
# Assay type: cell-based
# Conditions: for Butanol: Experiment 1; for Residual glucose concentration: initial glucose 60 g/L
# Method: Each well contained 1.5 mL of growth medium. Peptide was added to each well at the indicated concentration (0, 25, 50, and 100 nM). Every 24 hours fresh medium and peptide treatment were added to a new column of wells then 1.5 μL of the previous day culture was transferred to the new well. Wells were harvested for glucose and butanol analysis after 96 hours of growth. Transfers 1, 4, 7, 10, 13, 16, […].
# Briefly, Clostridium spores were germinated in a suitable growth medium for 18-24 hours then […] was transferred to 1.5 mL of fresh medium in each of four wells on a 24-well culture plate. Three of the wells had been treated with 25 nM, 50 nM and 100 nM of peptide, respectively while the fourth well was untreated. Thereafter, every 24 hours […] of each subculture was transferred to 1.5 mL of fresh medium that contained the same peptide treatment or no treatment. Transfers of successive subcultures were done for 24 days, and each subculture was grown for 96 hours before being harvested. Culture supernatants were recovered following centrifugation and were analyzed for butanol and residual glucose concentrations. Determination of optimum peptide treatment levels was based on a graphical comparison of the concentration of butanol in each of the four culture wells for sequential transfers 1, 4, 7, 10, 13, 16, 19, 22 and 24.
# Clostridium acetobutylicum strain ATCC 824 was used in all experiments and the growth medium used for sequential batch transfer, time course, and continuous culture experiments contained yeast extract, casamino acids, L-cysteine, L-asparagine, phosphate buffer, trace minerals, and 6% glucose. What are believed to be quorum-sensing peptides that were used in the experiments were chemically synthesized peptides SEQ ID NO: 143 (amino acid sequence: SYPGWSW) and SEQ ID NO: 144 (amino acid sequence: ILILISG). Routine growth of the bacteria as well as the sequential batch and time course experiments were conducted in a Form a Scientific Model 1029 anaerobic gas chamber at 32° C. Continuous cultures were performed at 32° C. using duplicate New Brunswick Scientific BioFlo 3000 apparati with a dilution rate of 0.01 volume per hour, 75 rpm agitation, and nitrogen gas sparging. Optical density of culture samples was measured at 600 nm in a Beckman DU 600 series spectrophotometer and glucose was analyzed using a YSI Model 2700 Select Biochemistry Analyzer with internal glucose calibration. Butanol concentrations were determined by measuring experimental and standard samples using a Varian Saturn 3 Gas Chromatograph/Mass Spectrometer and calculating butanol concentrations using standard curves.
# (§1) Sequential batch transfer experiments were carried out in 24-well culture plates that contained 1.5 mL of medium per well. Peptide was added to each well at the indicated concentrations of 0 nM (control), 25 nM, 50 nM, or 100 nM. Every 24 hours, fresh medium and peptide treatments were added to a new column of wells. Then, 1.5 uL of the previous day culture was transferred to the new well. Wells were harvested for glucose and butanol analysis after 96 hours of growth; transfers 1, 4, 7, 10, 13, 16, 19, 22, and 24 were analyzed. Two representative experiments are shown in Tables 30 and 31 and FIGS. 14 and 15.
# as §1, with “32” for “30”, “33” for “31”, “16” for “14”, “17.” for “15.”
# [1] = 50 nM, transfer 10, first experiment, after 96 hours of culture
# [2] = 50 nM, transfer 13, first experiment, after 96 hours of culture
# [3] = 50 nM, transfer 16, first experiment, after 96 hours of culture
# [4] = 50 nM, transfer 19, first experiment, after 96 hours of culture
# [5] = 50 nM, transfer 22, first experiment, after 96 hours of culture
# [6] = 50 nM, transfer 24, first experiment, after 96 hours of culture
# [7] = 100 nM peptide, transfer 1, after 96 hours of culture, Expt. 2 (repeat)
# [8] = 100 nM peptide, transfer 4, after 96 hours of culture, Expt. 2 (repeat)
# [9] = 100 nM peptide, transfer 7, after 96 hours of culture, Expt. 2 (repeat)
# [10] = 100 nM peptide, transfer 10, after 96 hours of culture, Expt. 2 (repeat)
# [11] = 100 nM peptide, transfer 13, after 96 hours of culture, Expt. 2 (repeat)
# [12] = 100 nM peptide, transfer 16, after 96 hours of culture, Expt. 2 (repeat)
# [13] = 100 nM peptide, transfer 19, after 96 hours of culture, Expt. 2 (repeat)
# [14] = 100 nM peptide, transfer 22, after 96 hours of culture, Expt. 2 (repeat)
# [15] = 100 nM peptide, transfer 24, after 96 hours of culture, Expt. 2 (repeat)
# [16] = 100 nM, transfer 1, first experiment, after 96 hours of culture
# [17] = 100 nM, transfer 4, first experiment, after 96 hours of culture
# [18] = 100 nM, transfer 7, first experiment, after 96 hours of culture
# [19] = 100 nM, transfer 10, first experiment, after 96 hours of culture
# [20] = 100 nM, transfer 13, first experiment, after 96 hours of culture
# [21] = 100 nM, transfer 16, first experiment, after 96 hours of culture
# [22] = 100 nM, transfer 19, first experiment, after 96 hours of culture
# [23] = 100 nM, transfer 22, first experiment, after 96 hours of culture
# [24] = 100 nM, transfer 24, first experiment, after 96 hours of culture
# [25] = BP110517 first experiment, 25 nM, transfers 19, 22 and 24
# [26] = BP110517 first experiment, 50 nM, transfer 10
substance,measurement,setting,value
SYPGWSW [peptide SEQ ID NO: 143],Butanol,"50 nM, transfer 10, after 96 hours of culture, listed as BP110517",13.7 g/L and 13.66 g/L
same,Butanol productivity,[1],0.14 g butanol/L-h
same,Butanol yield,[1],0.23 g butanol/g/glucose
same,Residual glucose concentration,[1],0.1 g/L
same,Butanol,"50 nM, transfer 13, after 96 hours of culture",10.28 g/L
same,Butanol productivity,[2],0.11 g butanol/L-h
same,Butanol yield,[2],0.17 g butanol/g/glucose
same,Residual glucose concentration,[2],0.1 g/L
same,Butanol,"50 nM, transfer 16, after 96 hours of culture",10.95 g/L
same,Butanol productivity,[3],0.11 g butanol/L-h
same,Butanol yield,[3],0.18 g butanol/g/glucose
same,Residual glucose concentration,[3],0.1 g/L
same,Butanol,"50 nM, transfer 19, after 96 hours of culture",3.96 g/L
same,Butanol productivity,[4],0.04 g butanol/L-h
same,Butanol yield,[4],0.07 g butanol/g/glucose
same,Residual glucose concentration,[4],47.6 g/L
same,Butanol,"50 nM, transfer 22, after 96 hours of culture",5.35 g/L
same,Butanol productivity,[5],0.06 g butanol/L-h
same,Butanol yield,[5],0.09 g butanol/g/glucose
same,Residual glucose concentration,[5],45.9 g/L
same,Butanol,"50 nM, transfer 24, after 96 hours of culture",4.70 g/L
same,Butanol productivity,[6],0.05 g butanol/L-h
same,Butanol yield,[6],0.08 g butanol/g/glucose
same,Residual glucose concentration,[6],50.2 g/L
same,Butanol concentration,[7],0.62 g/L
same,Butanol productivity,[7],0.01 g butanol/L-h
same,Butanol yield,[7],0.01 g butanol/g/glucose
same,Residual glucose concentration,[7],55.6 g/L
same,Butanol concentration,[8],1.50 g/L
same,Butanol productivity,[8],0.02 g butanol/L-h
same,Butanol yield,[8],0.03 g butanol/g/glucose
same,Residual glucose concentration,[8],49.3 g/L
same,Butanol concentration,[9],4.10 g/L
same,Butanol productivity,[9],0.04 g butanol/L-h
same,Butanol yield,[9],0.07 g butanol/g/glucose
same,Residual glucose concentration,[9],0.1 g/L
same,Butanol concentration,[10],7.37 g/L
same,Butanol productivity,[10],0.08 g butanol/L-h
same,Butanol yield,[10],0.13 g butanol/g/glucose
same,Residual glucose concentration,[10],0.1 g/L
same,Butanol concentration,[11],5.60 g/L
same,Butanol productivity,[11],0.06 g butanol/L-h
same,Butanol yield,[11],0.10 g butanol/g/glucose
same,Residual glucose concentration,[11],0.1 g/L
same,Butanol concentration,[12],7.51 g/L
same,Butanol productivity,[12],0.08 g butanol/L-h
same,Butanol yield,[12],0.13 g butanol/g/glucose
same,Residual glucose concentration,[12],0.1 g/L
same,Butanol concentration,[13],4.03 g/L
same,Butanol productivity,[13],0.04 g butanol/L-h
same,Butanol yield,[13],0.07 g butanol/g/glucose
same,Residual glucose concentration,[13],0.1 g/L
same,Butanol concentration,[14],5.05 g/L
same,Butanol productivity,[14],0.05 g butanol/L-h
same,Butanol yield,[14],0.09 g butanol/g/glucose
same,Residual glucose concentration,[14],0.1 g/L
same,Butanol concentration,[15],3.42 g/L
same,Butanol productivity,[15],0.04 g butanol/L-h
same,Butanol yield,[15],0.06 g butanol/g/glucose
same,Residual glucose concentration,[15],0.1 g/L
same,Butanol,"100 nM, transfer 1, after 96 hours of culture",1.14 g/L
same,Butanol productivity,[16],0.01 g butanol/L-h
same,Butanol yield,[16],0.02 g butanol/g/glucose
same,Residual glucose concentration,[16],48.3 g/L
same,Butanol,"100 nM, transfer 4, after 96 hours of culture",6.97 g/L
same,Butanol productivity,[17],0.07 g butanol/L-h
same,Butanol yield,[17],0.12 g butanol/g/glucose
same,Residual glucose concentration,[17],0.1 g/L
same,Butanol,"100 nM, transfer 7, after 96 hours of culture",7.33 g/L
same,Butanol productivity,[18],0.08 g butanol/L-h
same,Butanol yield,[18],0.12 g butanol/g/glucose
same,Residual glucose concentration,[18],0.1 g/L
same,Butanol,"100 nM, transfer 10, after 96 hours of culture",11.33 g/L
same,Butanol productivity,[19],0.12 g butanol/L-h
same,Butanol yield,[19],0.19 g butanol/g/glucose
same,Residual glucose concentration,[19],0.1 g/L
same,Butanol,"100 nM, transfer 13, after 96 hours of culture",7.22 g/L
same,Butanol productivity,[20],0.08 g butanol/L-h
same,Butanol yield,[20],0.12 g butanol/g/glucose
same,Residual glucose concentration,[20],0.1 g/L
same,Butanol,"100 nM, transfer 16, after 96 hours of culture",9.59 g/L
same,Butanol productivity,[21],0.10 g butanol/L-h
same,Butanol yield,[21],0.16 g butanol/g/glucose
same,Residual glucose concentration,[21],0.1 g/L
same,Butanol,"100 nM, transfer 19, after 96 hours of culture",4.76 g/L
same,Butanol productivity,[22],0.05 g butanol/L-h
same,Butanol yield,[22],0.08 g butanol/g/glucose
same,Residual glucose concentration,[22],0.1 g/L
same,Butanol,"100 nM, transfer 22, after 96 hours of culture",6.85 g/L
same,Butanol productivity,[23],0.07 g butanol/L-h
same,Butanol yield,[23],0.11 g butanol/g/glucose
same,Residual glucose concentration,[23],0.1 g/L
same,Butanol,"100 nM, transfer 24, after 96 hours of culture",4.67 g/L
same,Butanol productivity,[24],0.05 g butanol/L-h
same,Butanol yield,[24],0.08 g butanol/g/glucose
same,Residual glucose concentration,[24],0.1 g/L
same,Transfers over which butanol production was enhanced,"BP110517, sequential batch cultures (summary of findings)",transfer 4 through transfer 19
same,Butanol yield and productivity greater than untreated control,"BP110517 first experiment, 25 nM, transfer 4",23%
same,Butanol yield and productivity greater than untreated control,"BP110517 first experiment, 25 nM, transfer 16",24%
same,Decrease of butanol concentration below that of controls,[25],20%
same,Reduction in glucose utilization,[25],80%
same,Butanol yield and productivity greater than untreated control,"BP110517 first experiment, 50 nM, transfer 4",20%
same,Butanol productivity,[26],0.14 g butanol/1-hour
same,Butanol yield,[26],0.23 g butanol/g glucose
same,Butanol yield and productivity greater than untreated control,[26],46%
same,Butanol yield and productivity greater than untreated control,"BP110517 first experiment, 50 nM, transfer 16",16%
same,Effect on butanol production versus untreated control,"BP110517 first experiment, 100 nM, except at transfer 10","generally resulted in decreased butanol production, or no difference from the untreated control"
same,Glucose consumption,"BP110517 first experiment, all treated and untreated cultures, transfer 4 through transfer 16",~100%
same,Increase in butanol over untreated control,"SEQ ID NO: 143 first experiment, 25 nM, transfer 4",~25%
same,Increase in butanol over untreated control,"SEQ ID NO: 143 first experiment, 25 nM, transfer 4, listed as BP110517",23%
same,Increase in butanol over untreated control,"SEQ ID NO: 143 first experiment, 25 nM, transfer 16",24%
same,Increase in butanol over untreated control,"SEQ ID NO: 143 first experiment, 50 nM, transfer 4",~25%
same,Increase in butanol over untreated control,"SEQ ID NO: 143 first experiment, 50 nM, transfer 4, listed as BP110517",20%
same,Increase in butanol over untreated control,"SEQ ID NO: 143 first experiment, 50 nM, transfer 10",46%
same,Increase in butanol over untreated control,"SEQ ID NO: 143 first experiment, 50 nM, transfer 16",16%
same,Increase in butanol over untreated control,"SEQ ID NO: 143 first experiment, 100 nM, transfer 10",21%
same,Increase in butanol over untreated control,"SEQ ID NO: 143 second experiment, 50 nM, transfer 10",more than 200%
same,Increase in butanol over untreated control,"SEQ ID NO: 143 second experiment, 50 nM, transfer 10, listed as BP110517",223%
same,Increase in butanol over untreated control,"SEQ ID NO: 143 second experiment, 50 nM, transfer 13",289%
same,Increase in butanol over untreated control,"SEQ ID NO: 143 second experiment, 50 nM, transfer 16",170%
same,Increase in butanol over untreated control,"SEQ ID NO: 143 second experiment, 100 nM, transfer 10",more than 200%
same,Effect on differentiation and butanol production,sequential and continuous cultures,inducer of differentiation and butanol production
